According to US20080260695A1, “Composition for prevention and/or treatment of cancer” (MICROBIO COMPANY LTD., priority 2007, published 2008):

Test system: colorectal cancer cell (HT-29)
Assay: MTT assay, relative survival rate of colorectal cancer cell line
Type: cell-based
Details: HT-29, 24 hours, control 100%
Procedure: The six components (fermented soy extract (Microbio Biotechnology®), oligomeric proanthocyanidin, epigallocatiechin gallate, spirulina, curcumin, and Antrodia camphorata) of Example 1 were classified to seven groups; the content of each group is listed in Table 2. Each group was respectively diluted 300×, 600×, 1200×, and 2400× with McCoy's 5a medium, and then colorectal cancer cell (HT-29, 80000 cell/well) line was treated with the diluted group A to group G. After 24 hours, the relative survival rates of the colorectal cancer cell line were detected by MTT assay. In a control group, the relative survival rate was 100%.

[1] = 300 × dilution in McCoy's 5a medium
[2] = 600 × dilution in McCoy's 5a medium
[3] = 1200 × dilution in McCoy's 5a medium
[4] = 2400 × dilution in McCoy's 5a medium

| Molecule | Relatively survival rate (%) [1] | Relatively survival rate (%) [2] | Relatively survival rate (%) [3] | Relatively survival rate (%) [4] |
| --- | --- | --- | --- | --- |
| COc1cc(/C=C/C(=O)CC(=O)/C=C/c2ccc(O)c(OC)c2)ccc1O [Group C, curcumin] | 18% | 31% | 45% | 71% |
| epigallocatiechin gallate [Group B] | 23% | 50% | 66% | 81% |
